Measurements as given in patent publication US6936270B2, “Device and method for treating conditions of a joint” (Control Delivery Systems, Inc., priority 2000, dated 2005).
Where two headings read alike, the source gives them in different places.

Assay: Fluocinolone acetonide concentration in dog plasma after bilateral intraarticular implants (twelve month toxicity study in beagle dogs)
Type: in vivo, Canis familiaris
Settings: other: bilateral intraarticular implants (knee joints)
Description: Devices were administered once via bilateral intraarticular implants. The day of surgical implantation was Day 1. The devices were made as follows. Fluocinolone acetonide, USP, was compressed into 1.5 mm diameter tablets using standard pharmaceutical methods. The tablets were placed into preformed cups made from silicone elastomer. Cup size was dependent on dosage form. These cups were attached to […] (PVA) suture tabs. For the 2 mg implants, the surface of the tablet not coated with silicone was attached to a suture tab with PVA solution. For the 6 mg implant, a side of the silicone cup was attached perpendicular to the suture tab. Finally, the assemblies were dip coated with PVA. The implants were then cured at 135° C. for 5 hours and placed within the primary package. The product in the primary package was placed in a self-adhesive pouch and sterilized using gamma irradiation. Surgery was performed on both knee joints of all animals. A lateral skin incision was made to expose the fascia lata overlying the vastus lateralis cranially and the biceps fernoris caudally. The joint was exposed through an incision in the lateral intermuscular septum to expose the femur by anterior retraction of the vastus lateralis and posterior retraction of the biceps femoris. Care was taken not to disrupt the tendon of origin of the long digital extensor as it originates from the lateral femoral condyle. The joint capsule was opened, the patella luxated medially, and the joint was held in full flexion. 2 mg devices were placed in the right leg and 18 mg implants were placed in the left leg. The implants were placed within the anterior intercondyloid fossa, immediately lateral to the origin of the posterior cruciate ligament. The bone may be slightly deepened at this location with a curette to accept the implant. The implant was sutured in place to the posterior cruciate ligament. The joint capsule was closed with 3/0 PDS in a simple interrupted fashion. The retinaculum and intermuscular septum were closed with 2/0 Vicryl in a continuous pattern. The fascia lata were closed with 2/0 PDS, and the subcutaneous tissues with 3/0 PDS, both in a simple continuous pattern. The skin was closed with 3/0 Vicryl in a subcuticular pattern. Blood was collected from a peripheral vessel. Blood volumes represent whole blood and are approximate amounts. The blood samples were processed for plasma, the plasma was extracted, and the plasma was placed immediately in a ≦−70°C. freezer until transferred for analysis.

In the case of `CC1(C)O[C@@H]2C[C@H]3[C@@H]4C[C@H](F)C5=CC(=O)C=C[C@]5(C)[C@@]4(F)[C@@H](O)C[C@]3(C)[C@]2(C(=O)CO)O1` [Fluocinolone Acetonide], the concentration at 3 day (Dog 1001, Day 3, read-out: Assayed Concentrations of Fluocinolone Acetonide in Dog Plasma Samples) is reported as 1.89 ng/mL, the concentration at 21 day (Dog 1001, Day 21, read-out: Assayed Concentrations of Fluocinolone Acetonide in Dog Plasma Samples) is reported as 0.57 ng/mL and the concentration at 7 day (Dog 3001, Day 7, read-out: Assayed Concentrations of Fluocinolone Acetonide in Dog Plasma Samples) is reported as 16.9 ng/mL. It also gave a concentration at 21 day (Dog 3001, Day 21, read-out: Assayed Concentrations of Fluocinolone Acetonide in Dog Plasma Samples) of 4.92 ng/mL.
